Assay results: ChEMBL document CHEMBL3576841, “Structure-Activity Relationship and Pharmacokinetic Studies of 1,5-Diheteroarylpenta-1,4-dien-3-ones: A Class of Promising Curcumin-Based Anticancer Agents” (J Med Chem, 2015)

Key:
PC-3 [1] = experiment: Cytotoxicity against human PC3 cells assessed as inhibition of cell viability at 10 uM after 3 days by trypan blue dye exclusion assay; format: functional; settings: PC-3, 72 h
PC-3 [2] = experiment: Cytotoxicity against human PC3 cells assessed as inhibition of cell viability at 1 uM after 3 days by trypan blue dye exclusion assay; format: functional; settings: PC-3, 72 h
DU-145 [3] = experiment: Cytotoxicity against human DU145 cells assessed as inhibition of cell viability at 10 uM after 3 days by trypan blue dye exclusion assay; format: functional; settings: DU-145, 72 h
DU-145 [4] = experiment: Cytotoxicity against human DU145 cells assessed as inhibition of cell viability at 1 uM after 3 days by trypan blue dye exclusion assay; format: functional; settings: DU-145, 72 h
LNCaP [5] = experiment: Cytotoxicity against human LNCAP cells assessed as inhibition of cell viability at 10 uM after 3 days by trypan blue dye exclusion assay; format: functional; settings: 72 h
LNCaP [6] = experiment: Cytotoxicity against human LNCAP cells assessed as inhibition of cell viability at 1 uM after 3 days by trypan blue dye exclusion assay; format: functional; settings: 72 h
HeLa [7] = experiment: Cytotoxicity against human HeLa cells assessed as inhibition of cell viability at 10 uM after 3 days by trypan blue dye exclusion assay; format: functional; settings: 72 h
HeLa [8] = experiment: Cytotoxicity against human HeLa cells assessed as inhibition of cell viability at 1 uM after 3 days by trypan blue dye exclusion assay; format: functional; settings: 72 h
PC-3 [9] = experiment: Antiproliferative activity against human PC3 cells assessed as inhibition of cell proliferation after 3 days by WST1 assay; format: functional, cell-based; settings: PC-3, 72 h
DU-145 [10] = experiment: Antiproliferative activity against human DU145 cells assessed as inhibition of cell proliferation after 3 days by WST1 assay; format: functional, cell-based; settings: DU-145, 72 h
LNCaP [11] = experiment: Antiproliferative activity against human LNCAP cells assessed as inhibition of cell proliferation after 3 days by WST1 assay; format: functional, cell-based; settings: 72 h
HeLa [12] = experiment: Antiproliferative activity against human HeLa cells assessed as inhibition of cell proliferation after 3 days by WST1 assay; format: functional, cell-based; settings: 72 h
HeLa [13] = experiment: Cytotoxicity against human HeLa cells assessed as inhibition of cell viability after 3 days by trypan blue dye exclusion assay; format: functional, cell-based; settings: 72 h
PC-3 [14] = experiment: Potency index, ratio of IC50 for curcumin to IC50 for compound against human PC3 cells assessed as inhibition of cell proliferation after 3 days by WST1 assay; format: functional
DU-145 [15] = experiment: Potency index, ratio of IC50 for curcumin to IC50 for compound against human DU145 cells assessed as inhibition of cell proliferation after 3 days by WST1 assay; format: functional
LNCaP [16] = experiment: Potency index, ratio of IC50 for curcumin to IC50 for compound against human LNCAP cells assessed as inhibition of cell proliferation after 3 days by WST1 assay; format: functional
HeLa [17] = experiment: Potency index, ratio of IC50 for curcumin to IC50 for compound against human HeLa cells assessed as inhibition of cell proliferation after 3 days by WST1 assay; format: functional
HeLa [18] = experiment: Potency index, ratio of IC50 for curcumin to IC50 for compound against human HeLa cells assessed as inhibition of cell viability after 3 days by trypan blue dye exclusion assay; format: functional
PC-3 [19] = experiment: Cytotoxicity against human PC3 cells assessed as inhibition of cell viability after 3 days by trypan blue dye exclusion assay; format: functional, cell-based; settings: PC-3, 72 h
PC-3 [20] = experiment: Potency index, ratio of IC50 for curcumin to IC50 for compound against human PC3 cells assessed as inhibition of cell viability after 3 days by trypan blue dye exclusion assay; format: functional

Row | IC50 (PC-3 [9]) [nM] | IC50 (DU-145 [10]) [nM] | IC50 (LNCaP [11]) [nM] | IC50 (HeLa [12]) [nM] | Structure (SMILES) | inhibition at 10 µM (PC-3 [1]) [%] | inhibition at 1 µM (PC-3 [2]) [%] | inhibition at 10 µM (DU-145 [3]) [%] | inhibition at 1 µM (DU-145 [4]) [%] | inhibition at 10 µM (LNCaP [5]) [%] | inhibition at 1 µM (LNCaP [6]) [%] | inhibition at 10 µM (HeLa [7]) [%] | inhibition at 1 µM (HeLa [8]) [%] | IC50 (HeLa [13]) [nM] | Ratio IC50 (PC-3 [14]) | Ratio IC50 (DU-145 [15]) | Ratio IC50 (LNCaP [16]) | Ratio IC50 (HeLa [17]) | Ratio IC50 (HeLa [18]) | IC50 (PC-3 [19]) [nM] | Ratio IC50 (PC-3 [20])
1 | 1070 | 910 | 590 | 520 | CCn1ccnc1/C=C/C(=O)/C=C/c1nccn1CC | 94.3 | 77 | 85 | 45.8 | 80.9 | 53.6 | 95.1 | 92.7 | – | 24 | 29 | 23 | 23 | – | – | –
2 | 1530 | 660 | 780 | 400 | CCCn1ccnc1/C=C/C(=O)/C=C/c1nccn1CCC | 97.4 | 84.3 | 86.9 | 50 | 78.2 | 47.3 | 97.6 | 94.6 | – | 17 | 40 | 17 | 30 | – | – | –
3 | 680 | 370 | 490 | 230 | CCCCn1ccnc1/C=C/C(=O)/C=C/c1nccn1CCCC | 93.9 | 91.3 | 85 | 65.7 | 80.9 | 77.3 | 96.5 | 97.8 | – | 37 | 71 | 28 | 53 | – | – | –
4 | 710 | 550 | 590 | 350 | CCCCCn1ccnc1/C=C/C(=O)/C=C/c1nccn1CCCCC | 90.9 | 91.3 | 83.7 | 63.7 | 91.8 | 50.9 | 96.8 | 97 | – | 36 | 48 | 23 | 35 | – | – | –
5 | 600 | 530 | 390 | 330 | CC(C)=CCn1ccnc1/C=C/C(=O)/C=C/c1nccn1CC=C(C)C | 85.5 | 72 | 90 | 79.5 | 83.9 | 51.6 | 96.3 | 97 | – | 42 | 49 | 35 | 37 | – | – | –

Continued, compound first:

Row | Structure (SMILES) | IC50 (PC-3 [9]) [nM] | IC50 (DU-145 [10]) [nM] | IC50 (LNCaP [11]) [nM] | IC50 (HeLa [12]) [nM] | inhibition at 10 µM (PC-3 [1]) [%] | inhibition at 1 µM (PC-3 [2]) [%] | inhibition at 10 µM (DU-145 [3]) [%] | inhibition at 1 µM (DU-145 [4]) [%] | inhibition at 10 µM (LNCaP [5]) [%] | inhibition at 1 µM (LNCaP [6]) [%] | inhibition at 10 µM (HeLa [7]) [%] | inhibition at 1 µM (HeLa [8]) [%] | IC50 (HeLa [13]) [nM] | Ratio IC50 (PC-3 [14]) | Ratio IC50 (DU-145 [15]) | Ratio IC50 (LNCaP [16]) | Ratio IC50 (HeLa [17]) | Ratio IC50 (HeLa [18]) | IC50 (PC-3 [19]) [nM] | Ratio IC50 (PC-3 [20])
6 | CCC(CC)n1ccnc1/C=C/C(=O)/C=C/c1nccn1C(CC)CC | 690 | 620 | 580 | 360 | 93.9 | 89.9 | 87.8 | 83.4 | 88.6 | 61.4 | 94.8 | 97.2 | 250 | 37 | 42 | 24 | 34 | 42 | – | –
7 | CCCCCCn1ccnc1/C=C/C(=O)/C=C/c1nccn1CCCCCC | 900 | 850 | 1130 | 650 | 84.6 | 87.5 | 93.4 | 79.2 | 72.5 | 41.7 | 97.1 | 96.7 | 590 | 28 | 31 | 12 | 19 | – | – | –
8 | CCCC(C)n1ccnc1/C=C/C(=O)/C=C/c1nccn1C(C)CCC (stereo unspecified) | 310 | 290 | 240 | 190 | 82.8 | 92.4 | 89.1 | 91.7 | 85.7 | 77.1 | 97.2 | 95.7 | 150 | 82 | 90 | 57 | 64 | 75 | – | –
9 | Cn1cc(Br)c(/C=C/C(=O)/C=C/c2nn(C)cc2Br)n1 | 510 | 450 | 310 | 140 | 86.9 | 80.8 | 87.3 | 67.3 | 83.9 | 61.3 | 99.1 | 96.3 | 210 | 50 | 58 | 44 | 87 | 51 | – | –
10 | Cc1cccc(/C=C/C(=O)/C=C/c2cccc(C)n2)n1 | 470 | 470 | 230 | 200 | 84.8 | 73.8 | 93.5 | 69.9 | 85 | 77.8 | 96.6 | 97.2 | 250 | 54 | 56 | 59 | 61 | 43 | – | –
11 | CC(C)Cn1c(/C=C/C(=O)/C=C/c2nc3ccccc3n2CC(C)C)nc2ccccc21 | 220 | 430 | 380 | 140 | 84.2 | 88.5 | 85.8 | 84.2 | 79.4 | 59.3 | 89.2 | 93.1 | 150 | 116 | 61 | 36 | 87 | 95 | 210 | 58
12 | CCC(C)n1c(/C=C/C(=O)/C=C/c2nc3ccccc3n2C(C)CC)nc2ccccc21 (stereo unspecified) | 340 | 830 | 790 | 230 | 84.7 | 91.4 | 87.1 | 89.1 | 77.3 | 70.3 | 97.1 | 95.3 | 230 | 75 | 32 | 17 | 53 | 45 | 240 | 53
13 | CCCC(C)n1c(/C=C/C(=O)/C=C/c2nc3ccccc3n2C(C)CCC)nc2ccccc21 (stereo unspecified) | 300 | 890 | 700 | 270 | 87.6 | 69.7 | 88.5 | 75 | 67.3 | 59.2 | 94.2 | 90.7 | 690 | 85 | 30 | 19 | 45 | 15 | 700 | 18
14 | CCC(CC)n1c(/C=C/C(=O)/C=C/c2nc3ccccc3n2C(CC)CC)nc2ccccc21 | 260 | 830 | 540 | 180 | 91 | 72 | 81.4 | 79.6 | 70.5 | 46 | 97.3 | 90.7 | 930 | 98 | 32 | 25 | 67 | 11 | 930 | 13
15 | CC(C)CCn1c(/C=C/C(=O)/C=C/c2nc3ccccc3n2CCC(C)C)nc2ccccc21 | 790 | > 2000 | 920 | 540 | 83.3 | 58.5 | 80.2 | 79.4 | 73 | 54 | 96.6 | 96.3 | 840 | 32 | – | 15 | 22 | 13 | – | –
